Test results published in US4755523A, “Abietamide derivatives” (Nippon Shinyaku Co., Ltd., priority 1986, dated 1988).

Columns and labels:
[1] = test system: cholesterol loaded rats (serum total cholesterol); experiment: Effect in cholesterol loaded rats (HCD test), serum total cholesterol increase-inhibiting rate; format: in vivo, Male Wister strain rats; conditions: high-cholesterol food containing 0.03% of test compound, 3 days, serum TC, ** significant at 1% level
Experimental: Test method: Male Wister strain rats of 4 weeks age (six rats per group) were used. They were fed with a high-cholesterol food containing 0.03% of the compound to be tested. After 3 days' feeding, they were fasted overnight, blood was collected therefrom, and the total cholesterol level (TC) in serum was measured. A group fed with a high cholesterol food containing no test compound and groups fed with normal synthetic food were called control group and normal groups, respectively. The serum TC increase-inhibiting rate (%) of the test compound was calculated by the following expression: [formula]

[2] = test system: Triton-induced hyperlipemic mice (serum total cholesterol); experiment: Effect in Triton-induced hyperlipemic mice (Triton test), inhibiting rate against serum total cholesterol increase; format: in vivo, Male ICR-strain mice; conditions: Triton WR-1339 500 mg/kg i.v., test compound 300 mg/kg oral, serum TC after 24 hours, ** significant at 1% level
Experimental: Test method: Male ICR-strain mice of 9 weeks age (6 to 9 mice per group) were used. A solution of Triton WR-1339 in physiological saline solution was injected from tail vein at the dose of 500 mg/kg whereupon hyperlipemia was induced. Physiological saline solution was injected to normal group intravenously. Immediately thereafter, 300 mg/kg of the test compound suspended in 0.5% methylcellulose (MC) was given orally. The group given with 0.5% MC solution was called a control group. After fasting for 24 hours, head was cut, blood was taken, and the TC value of the resulting serum was measured. The inhibiting rate (%) against serum TC increase of the test compound was calculated by the following expression: [formula]

[3] = test system: absorption of extrinsic cholesterol from the intestinal tract; conditions: Japanese Laid Open Application Sho-51/026864; cited from earlier work
[4] = test system: biosynthesis of cholesterol; conditions: Japanese Laid Open Application Sho-51/026864; cited from earlier work

| Compound | Inhibitory Rate for Cholesterol Increase (HCD Test) [1] [%] | Inhibitory Rate for Cholesterol Increase (Triton Test) [2] [%] | inhibition of absorption of extrinsic cholesterol from the intestinal tract [3] | inhibition of the biosynthesis of cholesterol [4] |
| --- | --- | --- | --- | --- |
| CC(C)C1CCC2=C(CCC3C(C)(C(=O)Nc4nccs4)CCCC23C)C1 (stereo not shown) [Example 3, N-(Thiazol-2-yl)-Δ^8-dihydroabietamide] | 47 | 75 |  |  |
| Cc1cccc(C)c1NC(=O)C1(C)CCCC2(C)C3=C(CCC12)CC(C(C)C)CC3 (stereo not shown) [N--(2,6-Dimethylphenyl)-Δ^8-dihydroabietamide, reference compound] | 100 | -8 | inhibit absorption of extrinsic cholesterol from the intestinal tract | do not inhibit the biosynthesis of cholesterol |
| Cc1csc(NC(=O)C2(C)CCCC3(C)C4=C(CCC23)CC(C(C)C)CC4)n1 (stereo not shown) [Example 4, N-(4-Methylthiazol-2-yl)-Δ^8-dihydroabietamide] | 102 | 68 |  |  |
| CC(C)C1CCC2=C(CCC3C(C)(C(=O)Nc4ccnn4-c4ccccc4)CCCC23C)C1 (stereo not shown) [Example 1, N-(1-phenylpyrazol-5-yl)-Δ^8-dihydroabietamide] | 115 | 32 |  |  |
